This data set in a line: Effect of autoclaving (terminal sterilization) on the product. The data set is classed as physicochemical. Here is the method:
Batches of the phenylephrine composition of the present disclosure formulated as in Table 1 were manufactured for the study of the effect of autoclaving on product behavior by autoclaving at a target temperature T=121° C.±1° C. and time at different FOs according to USP <1222>, which is incorporated fully herein by reference.
The table below show the Critical Quality Attributes of the drug product. The objective of this study was to evaluate the quality of the proposed manufacturing process to determine whether the manufacturing process will endure the desired final product study.
The table below show the results of the autoclaving study using several batches of the phenylephrine hydrochloride product formulation of the disclosure, containing 0.08 mg/ml of phenylephrine HCL.

Each structure is given as a SMILES string. Where a name gives a salt, the structure may show the parent alone.

Consider `CNC[C@H](O)c1cccc(O)c1` [phenylephrine, benzene methanol, 3-hydroxy-α [(methyl amino)methyl]-hydrochloride (R)], for which the “effect of terminal sterilization by autoclaving” value is “caused degradation”.

The record behind these values is patent US12383497B2, “Ready-to-use phenylephrine formulations and products” (INFORLIFE SA, priority 2023, dated 2025).
